Source: patent US20100324073A1, “Pyrazolo [1,5-A] Pyrimidine Compounds” (Wyeth LLC, priority 2007, published 2010)

What was measured:
[1] = target: T1, human LXRβ (Homo sapiens, UniProt P55055); assay: Ligand-binding test procedure for human LXRβ; conditions: competition with 3H T0901317, biotinylated hLXRβ; read-out: hLXRb binding IC50
T1 construct: made in house; host or cells: E. coli
T1 sequence (P55055 1-460): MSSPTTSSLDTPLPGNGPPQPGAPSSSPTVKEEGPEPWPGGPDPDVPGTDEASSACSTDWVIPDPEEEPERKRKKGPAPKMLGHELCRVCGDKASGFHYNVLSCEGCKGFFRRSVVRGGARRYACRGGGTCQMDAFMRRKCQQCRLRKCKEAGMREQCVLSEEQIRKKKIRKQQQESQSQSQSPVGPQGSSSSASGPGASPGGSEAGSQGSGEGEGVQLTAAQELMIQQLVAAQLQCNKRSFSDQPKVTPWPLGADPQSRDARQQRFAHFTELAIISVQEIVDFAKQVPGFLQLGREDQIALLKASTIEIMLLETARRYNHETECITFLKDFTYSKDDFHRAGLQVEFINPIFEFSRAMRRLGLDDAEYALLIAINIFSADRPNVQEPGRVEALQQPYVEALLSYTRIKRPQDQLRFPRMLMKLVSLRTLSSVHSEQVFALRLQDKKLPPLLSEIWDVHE
Description: I. Ligand-Binding Test Procedure for Human LXRβ.
(§1) Buffer: 100 mM KCl, 100 mM TRIS (pH 7.4 at +4° C.), 8.6% glycerol, 0.1 mM PMSF*, 2 mM MTG*, 0.2% CHAPS (* not used in wash buffer)
Receptor source: E. coli extract from cells expressing biotinylated hLXRβ. Extract was made in a similar buffer as above, but with 50 mM TRIS.
(§2) Washed streptavidin and coated flash plates with wash buffer. Diluted receptor extract to give Bmax˜4000 cpm and add to the wells. Wrapped the plates in aluminum foil and stored them at +4° C. over night.
(§3) Made a dilution series in DMSO of the test ligands. Made a 5 nM solution of the radioactive tracer in buffer. Mixed 250 μl diluted tracer with 5 μl of the test ligand from each concentration of the dilution series. Washed the receptor-coated flash plates. Added 200 μl per well of the ligand/radiolabel mixture to the receptor-coated flash plates. Wrapped the plates in aluminum foil and incubate at +4° C. over night.
(§4) Aspirated wells, and wash the flashed plates. Sealed the plate. Measured the remaining radioactivity in the plate.

[2] = target: T2, human LXRα (Homo sapiens, UniProt Q13133); assay: Ligand-binding test procedure for human LXRα; conditions: competition with 3H T0901317, biotinylated hLXRα; read-out: hLXRa binding IC50
T2 construct: made in house; host or cells: E. coli
T2 sequence (Q13133 1-447): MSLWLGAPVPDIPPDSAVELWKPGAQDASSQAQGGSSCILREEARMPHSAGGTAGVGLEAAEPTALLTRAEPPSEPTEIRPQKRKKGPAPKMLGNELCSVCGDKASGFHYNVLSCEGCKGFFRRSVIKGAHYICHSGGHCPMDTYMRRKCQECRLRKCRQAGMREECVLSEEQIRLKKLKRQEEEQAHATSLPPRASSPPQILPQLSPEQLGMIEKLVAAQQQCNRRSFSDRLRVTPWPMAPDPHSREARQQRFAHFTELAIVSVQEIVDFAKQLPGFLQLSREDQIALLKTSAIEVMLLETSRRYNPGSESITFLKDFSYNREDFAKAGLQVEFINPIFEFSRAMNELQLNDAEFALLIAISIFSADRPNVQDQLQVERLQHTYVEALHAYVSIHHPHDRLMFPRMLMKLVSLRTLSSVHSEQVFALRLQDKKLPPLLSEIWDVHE
Description: II. Ligand-Binding Test Procedure for Human LXRα.
as §1
Receptor source: E. coli extract from cells expressing biotinylated hLXRα. Extract was made in a similar buffer as above, but with 50 mM TRIS.
as §2
as §3, with “[…]” for “250 μl”
as §4

[3] = test system: ABCA1 gene; assay: Quantitative analysis of ABCA1 gene regulation in THP-1 cells; type: cell-based; conditions: Gene regulation by LXR (human), differentiated THP-1 cells; for EC50: 18 hrs, ABCA1 mRNA by real-time PCR; for Agonism ABCA1: LXR agonist reference at 1.0 uM as positive control
Description: III. Quantitative Analysis of ABCA1 Gene Regulation in THP-1 Cells.
The compounds of formula (I) effect on the regulation of the ABCA1 gene was evaluated using the following procedure.
Cell culture: The THP-1 monocytic cell line (ATCC # TIB-202) was obtained from American Type Culture Collection (Manassas, Va.) and cultured in RPMI 1640 medium (Gibco, Carlsbad, Calif.) containing 10% FBS, 2 mM L-glutamine, and 55 uM beta-Mercaptoethanol (BME). Cells were plated in 96-well format at a density of 7.5×10^4 in complete medium containing 50-100 ng/ml phorbal 12,13-dibutyrate (Sigma, St. Louis, Mo.) for three days to induce differentiation into adherent macrophages. Differentiated THP-1 cells were treated with test compounds or ligands dissolved in DMSO (Sigma, D-8779) in culture medium lacking phorbal ester. […] Dose response effects were measured in duplicate, in the range of 0.001 to 30 micromolar concentrations and treated cells were incubated for an additional 18 hrs prior to RNA isolation. Unstimulated cells treated with vehicle were included as negative controls on each plate. An LXR agonist reference, N-(2,2,2-trifluoro-ethyl)-N-[4-(2,2,2-trifluoro-1-hydroxy-1-trifluoromethyl-ethyl)-phenyl]-benzenesulfonamide (Schultz, Joshua R., Genes & Development (2000), 14(22), 2831-2838), was dosed at 1.0 uM and served as a positive control. In antagonist mode, the compound under study is analyzed in the presence of 150 nM GW3965, trifluoromethyl-benzyl)-(2,2-diphenyl-ethyl)-amino]-propoxy]-phenyl)-acetic acid (Collins, J. L., J. Med. Chem. (2000), 45:1963-1966.). Results of antagonist analysis are expressed as % antagonism and IC50 (in μM). RNA isolation and quantitation: Total cellular RNA was isolated from treated cells cultured in 96-well plates using PrepStation 6100 (Applied Biosystems, Foster City, Calif.), according to the manufacturer's recommendations. RNA was resuspended in ribonuclease-free water and stored at −70° C. prior to analysis. RNA concentrations were quantitated with RiboGreen test procedure, #R-11490 (Molecular Probes, Eugene, Oreg.). Gene expression analysis: Gene-specific mRNA quantitation was performed by real-time PCR with the Perkin Elmer Corp. chemistry on an ABI Prism 7700 Sequence detection system (Applied Biosystems, Foster City, Calif.) according to the manufacturer's instructions. Samples (50-100 ng) of total RNA were assayed in duplicate or triplicate in 50 ul reactions using one-step RT-PCR and the standard curve method to estimate specific mRNA concentrations. Sequences of gene-specific primer and probe sets were designed with Primer Express Software (Applied Biosystems, Foster City, Calif.). The human ABCA1 primer and probe sequences are: forward, […], reverse, […], and probe, 6FAM-[…]-TAMRA. RT and PCR reactions were performed according to PE Applied Biosystem's protocol for Taqman Gold RT-PCR or Qiagen's protocl for Quantitect probe RT-PCR. Relative levels of ABCA1 mRNA are normalized using GAPDH mRNA or 18S rRNA probe/primer sets purchased commercially (Applied Biosystems, Foster City, Calif.).
Mean, standard deviation and statistical significance of duplicate evaluations of RNA samples were assessed using ANOVA, one-way analysis of variance using SAS analysis.

CCS(=O)(=O)c1cccc(Oc2cccc(-c3c(Cc4ccccc4)nn4c(C(F)(F)F)ccnc34)c2)c1 [Example 6, 2-benzyl-3-(3-(3-(ethylsulfonyl)phenoxy)phenyl)-7-(trifluoromethyl)pyrazolo[1,5-a]pyrimidine] was tested. Which IC50 [1] did it give?
The IC50 was 5.3 nM.

What about the IC50 [2] of the same compound?
Its IC50 is 98.2 nM.

And the EC50 [3]?
The EC50 was 275 nM.

And the “Agonism ABCA1” value [3]?
The value was 101%.

For O=S(=O)(CCCO)c1cccc(Oc2cccc(-c3c(Cc4ccccc4)nn4c(C(F)(F)F)ccnc34)c2)c1 [Example 7, 3-(3-(3-(2-benzyl-7-(trifluoromethyl)pyrazolo[1,5-a]pyrimidin-3-yl)phenoxy)phenylsulfonyl)propan-1-ol], which IC50 [1] is on record?
Its IC50 is 3.4 nM.

And the IC50 [2]?
Its IC50 is 87.2 nM.

And the EC50 [3]?
The EC50 was 724 nM.

What about the “Agonism ABCA1” value [3] of the same compound?
The value was 109%.

How did the IC50 [1] turn out when CS(=O)(=O)c1cccc(Oc2cccc(-c3c(Cc4ccccc4)nn4c(C(F)(F)F)ccnc34)c2)c1 [Example 5, 2-benzyl-3-{3-[3-(methylsulfonyl)phenoxy]phenyl}-7-(trifluoromethyl)pyrazolo[1,5-a]pyrimidine] was run?
The IC50 was 2.4 nM.

And the IC50 [2]?
Its IC50 is 61.6 nM.

What about the EC50 [3] of the same compound?
Its EC50 is 115 nM.

And the “Agonism ABCA1” value [3]?
Its value is 98%.
